The source of these data is patent US20170360991A1, “DRUG COMPOSITION AND COATING” (W. L. GORE & ASSOCIATES, INC., priority 2015, published 2017).

Series [1] in a line: Early experiments on stability of organic additive in solution. The class given is physicochemical. From the text:
Thus, vanillin is not suitable as an organic additive for the present invention.

The nature of series [2]: Ethylene oxide sterilization instability of paclitaxel-niacinamide formulations. The following applies: additive formulated with paclitaxel as solid coating.
Series [3] can be described thus: Ethylene oxide stability of cast paclitaxel-excipient films. It is filed as physicochemical. The conditions noted are these: mean of N = 3.
Experimental: Approximately 30 mg of excipient was weighed into a 7 mL glass vial and 6 mL of 75/25 v/v acetone/water was added. A small stirrer bar was added to each vial and all samples were stirred overnight at room temperature to ensure full dissolution. Next, a stock solution of paclitaxel in the casting solvent was made at 5 mg/mL. A specific volume of paclitaxel stock and excipient stock was added to a new vial to achieve the target paclitaxel/excipient weight fraction listed in Table 6. The vials were then mixed and aliquoted to N=6 of the 20 mL vials (0.5 mL each). A paclitaxel-only control was also added to N=6 vials (0.25 mL each). All vials were left in a fume hood overnight to evaporate the solvents. After drying, the samples were capped with cellulose membranes cut to septa size to allow ethylene oxide and moisture permeability. All samples were packaged in breathable polyethylene pouches. N=3 of each paclitaxel/excipient mixture were kept as non-sterilized controls, and the remainder (N=3) were sent for ethylene oxide sterilization (see Test Method D). Non-sterilized controls were stored at room temperature prior to analysis. Paclitaxel content analysis was performed as described in the Evaluation Methods section. Percent paclitaxel recovery was calculated by normalizing to either theoretical initial loading or pre-sterilized samples.
For series [4] the following is noted: acetone, ethanol and aqueous mixtures thereof. The source says:
As discussed in further detail below, coatings of the invention can be prepared by pipetting a solution containing therapeutic agent and excipient onto the device to be coated. […] Thus, in one embodiment the organic additive is not thiamine-HCl.

Counter-ions that a name gives are not always drawn.

In the case of `COc1cc(C=O)ccc1O` [vanillin], the “stability in solution” value in series [1] is recorded as “easily degraded in solution”. For the compound `O=C([O-])c1ccccc1O.[Na+]` [sodium salicylate], the “paclitaxel degradation on ethylene oxide sterilization” value in series [2] was “cause degradation of the paclitaxel”.

Take `CC(=O)O[C@H]1C(=O)[C@@]2(C)[C@H]([C@H](OC(=O)c3ccccc3)[C@]3(O)C[C@H](OC(=O)[C@H](O)[C@@H](NC(=O)c4ccccc4)c4ccccc4)C(C)=C1C3(C)C)[C@]1(OC(C)=O)CO[C@@H]1C[C@@H]2O` [PTX only, paclitaxel]: the “% PTX recovery, pre vs. post” value in series [3] (cast formulations post ethylene oxide sterilization, normalized to pre-sterilized samples) is listed as 101.7%. Besides, in series [3] (cast formulations pre-sterilization, normalized to theoretical loading), the “% PTX recovery, theoretical vs. pre” value turned out to be 98.2%. On to `Cc1ncc(C[n+]2csc(CCO)c2C)c(N)n1` [thiamine-HCl], for which the “solubility” value in series [4] is recorded as “poor solubility”.
